One may read the IC50 as the concentration at which inhibition is half-maximal.

SMILES strings stand for the structures.

The experiment deals with T1, Rho kinase II (ROKα) (Rattus norvegicus, UniProt Q62868).
T1 construct: purchased Upstate Biotechnology
T1 sequence (Q62868 whole entry): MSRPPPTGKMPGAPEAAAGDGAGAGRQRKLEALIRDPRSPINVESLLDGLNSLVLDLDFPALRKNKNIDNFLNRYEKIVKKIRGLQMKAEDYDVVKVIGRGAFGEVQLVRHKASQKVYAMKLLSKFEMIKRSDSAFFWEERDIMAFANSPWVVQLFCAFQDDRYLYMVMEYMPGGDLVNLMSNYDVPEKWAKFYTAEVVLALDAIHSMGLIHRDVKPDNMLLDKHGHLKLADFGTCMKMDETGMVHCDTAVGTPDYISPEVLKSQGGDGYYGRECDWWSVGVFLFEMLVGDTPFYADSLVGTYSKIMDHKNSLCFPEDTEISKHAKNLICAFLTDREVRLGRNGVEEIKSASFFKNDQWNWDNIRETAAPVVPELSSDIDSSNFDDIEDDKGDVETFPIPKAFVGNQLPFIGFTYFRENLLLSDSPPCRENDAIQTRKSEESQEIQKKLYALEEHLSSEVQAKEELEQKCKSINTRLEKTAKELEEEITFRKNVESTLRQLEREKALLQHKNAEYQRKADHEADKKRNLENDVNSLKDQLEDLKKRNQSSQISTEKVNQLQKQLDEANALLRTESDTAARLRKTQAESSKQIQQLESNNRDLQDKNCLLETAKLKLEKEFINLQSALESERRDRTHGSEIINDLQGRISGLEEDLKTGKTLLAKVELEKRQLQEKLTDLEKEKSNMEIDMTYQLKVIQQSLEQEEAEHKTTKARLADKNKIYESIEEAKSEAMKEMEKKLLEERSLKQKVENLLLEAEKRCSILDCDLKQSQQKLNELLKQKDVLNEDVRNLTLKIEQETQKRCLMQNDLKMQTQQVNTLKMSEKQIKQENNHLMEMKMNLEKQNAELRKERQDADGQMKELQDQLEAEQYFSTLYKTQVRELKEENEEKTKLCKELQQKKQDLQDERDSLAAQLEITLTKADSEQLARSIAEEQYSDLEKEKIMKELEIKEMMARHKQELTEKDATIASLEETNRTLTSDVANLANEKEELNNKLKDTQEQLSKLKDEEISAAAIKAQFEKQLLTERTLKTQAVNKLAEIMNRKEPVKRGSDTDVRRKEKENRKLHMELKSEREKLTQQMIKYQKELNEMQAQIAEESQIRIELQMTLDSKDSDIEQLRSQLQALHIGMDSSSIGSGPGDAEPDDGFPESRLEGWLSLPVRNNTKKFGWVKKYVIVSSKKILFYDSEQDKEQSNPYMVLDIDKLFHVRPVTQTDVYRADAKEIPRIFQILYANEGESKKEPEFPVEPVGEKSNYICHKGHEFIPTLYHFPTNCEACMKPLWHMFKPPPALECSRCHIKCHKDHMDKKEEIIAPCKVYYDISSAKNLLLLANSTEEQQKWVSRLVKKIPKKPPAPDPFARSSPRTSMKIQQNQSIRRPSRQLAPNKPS
Nature of the experiment: Inhibition of recombinant Rho kinase II (ROKα), 33P phosphate uptake into S6 substrate peptide. Format: biochemical. The conditions noted are these: recombinant Rho kinase II (Upstate Biotechnology), S6 phosphate-acceptor peptide, 33P-labelled ATP, 20 min at 37° C. On the procedure: The inhibition of the enzyme is investigated in an in vitro assay with recombinant Rho kinase II. The vessel-relaxing action is determined using phenylephrin-induced contractions of isolated rings of the saphenous artery of rabbits.
Inhibition of Recombinant Rho Kinase II (ROKα)
The activity of Rho kinase is determined by the uptake of ^33P phosphate into a substrate peptide. To this end, commercially available Rho kinase II (Upstate Biotechnology) is pre-incubated at 37° C. in the presence of the S6 phosphate-acceptor peptide with the test substances or a solvent control for 10 min. The kinase reaction is then started by addition of ^33P-labelled ATP. After 20 min at 37° C., the reaction is stopped by addition of H3PO4. Aliquots are pipetted onto filters and the filters are washed and then covered with scintillator. The radioactivity of the ^33P-labelled peptides bound to the filter is measured in a Micro-Beta counter. The IC50 value corresponds to the concentration of a test substance at which the Rho-kinase-catalysed uptake of ^33P into the peptide is inhibited by 50%, compared to a solvent control.
With `CC(C)(C)NCc1ccc(C(=O)Nc2ccc(Oc3ccnc4[nH]ccc34)c(F)c2)cc1` [Example 15], the concentration for half-maximal inhibition (IC50) was 49 nM.
Turning to `Cc1c[nH]c2nccc(Oc3ccc(NC(=O)CNC(C)(C)C)cc3F)c12` [Example 23], the concentration for half-maximal inhibition (IC50) worked out at 12 nM.
Then `CN(C)CCNC(=O)Nc1ccc(Oc2ccnc3[nH]ccc23)c(F)c1` [Example 40], with 27 nM.
For the compound `CN(C)CCOC(=O)Nc1ccc(Oc2ccnc3[nH]ccc23)c(F)c1` [Example 41], the IC50 was 20 nM.

Values taken from US20080249105A1, “Pyrrolopyridine-Substituted Benzol Derivatives for Treating Cardiovascular Diseases” (Bayer Healthcare AG, priority 2003, published 2008).
